Experimental data from patent US10766940B2, “Brain penetrant amylin receptor based peptides for Alzheimer's disease” (The Governors of the University of Alberta, priority 2016, dated 2020).
Residues, ends and D or L forms follow the SMILES beside them. No end group written: not given here.

Experiments:
[1] = tested on: h-Amylin depression of hippocampal LTP; assay: Hippocampal slice electrophysiology, long-term potentiation (LTP); set-up: species or system mouse; settings: for reversal of h-Amylin reduction in LTP: 250 nM peptide perfused 5 min prior to 50 nM h-Amylin; for effect of peptide alone on LTP: 250 nM, mouse hippocampal slice
Experimental: Brains were quickly removed from mice following decapitation, placed in a cold artificial cerebral spinal fluid (aCSF) on a vibratome chamber, and transverse sections cut through the hippocampus. The aCSF contained (in millimolar 124 NaCl, 3 KCl, 2.4 CaCl2, 2 MgCl2, 1.25 NaH2PO4, 26 NaHCO3, and 10 D-glucose and was equilibrated with 95% 02 and 5% CO2. Hippocampal slices (400-μm thick) were maintained in aCSF-filled holding chamber at room temperature for at least 1 h and individually transferred to the submerged glass bottom recording chamber, which was constantly perfused with aCSF (2 ml/min) at 30° C. Field excitatory postsynaptic potential (fEPSP) was recorded with a metallic (Pt/Ir) electrode (FHC, Bowdoin, Me.) from the stratum radiatum layer of Cornu ammonis 1 region of the hippocampus (CA1) area, and the Schaffer collateral afferents were stimulated with 100-μs test pulses via a bipolar cluster electrode (FHC). For long-term potentiation (LTP) experiments, the stimulus strength was set to elicit 40-50% of the maximum fEPSP amplitude and test pulses were delivered to Schaffer collaterals once every 30 s. LTP was induced by 3-theta-burst stimulation (3-TBS) protocol (each burst consisted of four pulses at 100 Hz with a 200-ms interburst interval). Before 3-TBS or drug application, the responses were monitored for at least 10 min to ensure a stable baseline of fEPSP.
Soluble oligomeric Aβ1-42, Fragments R5, R10, R11 and h-Amylin were used. Aβ1-42 was purchased from rPeptide, and h-Amylin were purchased from American Peptide. All drugs and chemicals were applied directly to the slice via bath perfusion, which allowed for a complete exchange of the perfusate in less than a minute and a half.

AMY1 = molecular target: T1, AMY1 (Homo sapiens, UniProt O60894+P30988); assay: Flow cytometry cell uptake, AMY1 cells; format: cell-based; settings: 10 μM, 37° C., 60 min
T1 construct: expressed in transfected cells

[2] = molecular target: T2, AMY3 receptor (CTR+RAMP3), HEK293-AMY3 cells (Homo sapiens, UniProt O60896+P30988); assay: Peptide array-cell binding assay, AMY3 cells; settings: membrane-bound peptides, GFP cells
T2 construct: expressed in transfected cells; AMY3-293 / AMY3-HEK)
T2 sequence (P30988 25-474): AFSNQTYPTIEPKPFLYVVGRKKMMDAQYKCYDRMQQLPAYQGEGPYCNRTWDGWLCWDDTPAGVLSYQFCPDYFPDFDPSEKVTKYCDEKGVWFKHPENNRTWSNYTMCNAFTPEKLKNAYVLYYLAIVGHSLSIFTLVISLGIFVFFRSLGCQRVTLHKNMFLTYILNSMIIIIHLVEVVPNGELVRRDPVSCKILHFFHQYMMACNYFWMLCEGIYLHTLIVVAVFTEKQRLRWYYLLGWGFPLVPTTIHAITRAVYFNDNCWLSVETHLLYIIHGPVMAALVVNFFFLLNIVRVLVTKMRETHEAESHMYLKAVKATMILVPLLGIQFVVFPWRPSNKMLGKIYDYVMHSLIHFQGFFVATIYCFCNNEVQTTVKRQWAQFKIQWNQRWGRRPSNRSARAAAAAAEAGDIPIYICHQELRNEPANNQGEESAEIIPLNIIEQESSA
T2 sequence (O60896 24-148 partner): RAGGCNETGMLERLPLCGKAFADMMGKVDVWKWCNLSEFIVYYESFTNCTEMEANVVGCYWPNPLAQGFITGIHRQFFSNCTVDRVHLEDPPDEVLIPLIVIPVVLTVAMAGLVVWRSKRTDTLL
Source text: A peptide array library derived from AC253 peptide sequence comprising 14 short peptide sequences namely, R1-R14 (R-R13 are 12 amino acids, peptide R14 is 14 aa), was synthesized in duplicate on a cellulose membrane using SPOT synthesis. Briefly, peptide fragments were designed by selecting the first 12 amino acids from N-terminus, skipping one amino acid and moving towards C-terminus to yield 13 sequences R1-R13, and peptide R14 is the first 14 amino acid of the N-terminus region of AC253. The peptide array was synthesized on a PEG-500-derivatized cellulose membrane with a free amino terminal group using a semiautomatic robot AutoSpot ASP222 (Intavis AG, Germany). Synthesis of peptides on PEG500 derivatised cellulose membrane was started by attaching first β-alanine residue (linker) to the cellulose membrane and subsequently peptides synthesized from the C-terminus. […]
To screen the peptide library for amylin receptor binding affinity, transfected GFP-positive Human Embryonic Kidney 293 cells that express AMY3 receptor (CTR+RAMP3) was used. […] The peptide array membrane was incubated with 20 ml GFP-cells (75,000/ml) in serum free media for 3 hr, and after washing, the net fluorescence intensity of each peptide spot due to bound cells was quantified using a Kodak imager. […] Duplicate peptide spots, two scans, and two different experiments were used to calculate net fluorescence intensity. […]

T1 sequence (O60894 27-148 partner, one chain of several): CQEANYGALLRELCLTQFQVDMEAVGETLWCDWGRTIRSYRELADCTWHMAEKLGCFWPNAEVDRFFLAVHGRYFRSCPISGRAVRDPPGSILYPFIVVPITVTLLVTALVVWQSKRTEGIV

Compound | reversal of h-Amylin reduction in LTP [1] | effect of peptide alone on LTP [1] | flow cytometry binding to AMY1 cells (AMY1) | binding to HEK293-AMY3 cells on peptide array (fluorescence) [2]
CC(C)C[C@H](NC(=O)[C@H](CCC(=O)O)NC(=O)[C@H](CCC(N)=O)NC(=O)[C@@H](N)CO)C(=O)N[C@@H](Cc1c[nH]cn1)C(=O)N[C@@H](CCCNC(=N)N)C(=O)N[C@@H](CC(C)C)C(=O)N[C@@H](CCC(N)=O)C(=O)N[C@H](C(=O)N[C@@H](Cc1ccc(O)cc1)C(=O)N1CCC[C@H]1C(=O)N[C@@H](CCCNC(=N)N)C(N)=O)[C@@H](C)O [R5] (H-SQELHRLQTYPR-NH2; N-terminus assumed) | significantly reversed | did not impair LTP | selective and significant specific binding | most significant binding
LGRLSQELHRLQTY (LGRLSQELHRLQTY-NH2) [R14] | significantly reversed | did not impair LTP | selective and significant specific binding | most significant binding
